Data as given in patent publication US20170224731A1, “METHOD OF PRODUCING LEUKOCYTES USING PTPN2 INHIBITION FOR ADOPTIVE CELL TRANSFER” (MONASH UNIVERSITY, priority 2014, published 2017).

What was measured:
[1] = tested on: CD8+ naïve (CD62LhiCD44lo) splenic T cells; test: Activation of naive CD8+ splenic T cells with plate-bound αCD3/CD28, surface markers by flow cytometry (FIG. 11); assay type: cell-based, C57BL/6 mice; conditions: plate-bound αCD3/CD28 for 48 h, versus vehicle
Description: FIG. 11. […] T cells were stained with fluorochrome-conjugated antibodies to assess CD44, CD62L, IL-2Ra (CD25 subunit) and CD69 surface levels and mean fluorescence intensity (MFI) was monitored by flow cytometry.
T cells were stained with fluorochrome-conjugated antibodies to assess CD44, CD62L, IL-2Rα (CD25 subunit) and CD69 surface levels and mean fluorescence intensity (MFI) was monitored by flow cytometry.

[2] = tested on: Naive (CD62LhiCD44lo) CD8+ LN T cells; test: Stimulation of naive CD8+ LN T cells with anti-CD3/anti-CD28 ± PTPN2 inhibitor, MFI by flow cytometry (FIG. 14); assay type: cell-based, C57BL/6 mice; conditions: anti-CD3 (5 μg/ml) and anti-CD28 (5 μg/ml) for 60 h, inhibitor at various concentrations
Description: FIG. 14. […] Naive (CD62LhiCD44lo) CD8+ LN T cells (1×105) from C57BL/6 mice were stimulated with plate-bound anti-CD3 (5μg/ml) and anti-CD28 (5μg/m1) for 60 h±PTPN2 inhibitor at various concentrations. Cells were harvested and stained with fluorochrome-conjugated antibodies for CD44, CD69, CD25 and CD62L and mean fluorescence intensity (MFI) analyzed by flow cytometry. Results shown are means±SD for the indicated number of replicates.
CD8^+CD62L^hiCD44^lo naïve LN T cells (1×10^5/well) were stimulated in 96-well round-bottom plates with plate-bound α-CD3 (5 μg/ml) and a-CD28 (5 μg/ml) for 60 h. PTPN2 inhibitor was added twice daily to the culture. To determine the activation status cells were harvested, stained with fluorochrome-conjugated antibodies against α-CD25, α-CD44, α-CD62L and α-CD69 and analysed by flow cytometry.
In FIG. 14, the results of naive)(CD62L^hiCD44^loCD8+ LN T cells (1×105) from C57BL/6 mice that were stimulated with plate-bound anti-CD3 (5 μg/ml) and anti-CD28 (5 μg/ml) for 60 h±PTPN2 inhibitor (compound 8) at various concentrations is shown. Cells were harvested and stained with fluorochrome-conjugated antibodies for CD44, CD69, CD25 and CD62L and mean fluorescence intensity (MFI) analyzed by flow cytometry. Results shown are means±SD for the indicated number of replicates.

[3] = tested on: CD8+ human blood lymphocytes; test: Human PBMC stimulation with plate-bound α-CD3, T cell activation (CD69, CD154) by flow cytometry (FIG. 16); assay type: cell-based; conditions: human PBMCs, plate-bound α-CD3 (1.25 and 2.5 μg/ml) for 24 h
Description: FIG. 16. […] Freshly isolated human PBMCs (2×10^6) were stimulated with plate-bound α-CD3 (1.25 and 2.5 μg/ml) for 24 h. PBMCs were harvested and stained with fluorochrome-conjugated antibodies for CD45RA, CD8, CD69 and CD154 and T cell activation was monitored by flow cytometry. Representative CD8 versus CD69 and CD154 plots (numbers in outlined areas are the relative numbers in the gate) are shown.
(§1) Human blood was collected in 15 ml glass tubes containing Ficoll® gradient (GE Healthcare Life Sciences, Amersham, UK). Peripheral blood […] (PBMCs) were recovered by centrifugation (2200×rpm, 20 min at room temperature). PBMCs were incubated with PTPN2 inhibitor (compound 8) in serum-free RPMI 1640 for two hours at 37° C. and stimulated with plate-bound human α-CD3 (5 μg/ml; clone OKT-3) for 24 h. Cells were harvested and stained with fluorochrome-conjugated antibodies against α-CD8, α-CD45RA, α-CD154 and α-CD69 and analysed by flow cytometry to determine their activation status. To monitor T cells proliferation Calibrite Beads™ were added to the wells before cells were harvested.
Freshly isolated human PBMCs (2×10^6) were stimulated with plate-bound α-CD3 (1.25 and 2.5 μg/ml) for 24 h. PBMCs were harvested and stained with fluorochrome-conjugated antibodies for CD45RA, CD8, CD69 and CD154 and T cell activation was monitored by flow cytometry. […]

[4] = tested on: CD8+ human blood lymphocytes; test: Human PBMC stimulation with plate-bound α-CD3, CD8+ T cell proliferation by flow cytometry with Calibrite Beads (FIG. 19); assay type: cell-based; conditions: human PBMCs, plate-bound α-CD3 for 48 h and 72 h, versus vehicle control
Description: FIG. 19. […] Freshly isolated human PBMCs (2×10^6) were stimulated with plate-bound α-CD3 for (A) 48 h and (B) 72 h, in the presence of vehicle control or the PTPN2 inhibitor, compound 8 (as described herein). PBMCs were harvested and stained with fluorochrome-conjugated α-CD8. Calibrite Beads™ were added and T cell proliferation was monitored by flow cytometry. Results shown are means±SD for the indicated number of replicates.
as §1
Freshly isolated human PBMCs (2×10^6) were stimulated with plate-bound α-CD3 for (A) 48 h and (B) 72 h, in the presence of vehicle control or the PTPN2 inhibitor, compound 8 (as described herein). […] Calibrite Beads™ were added and T cell proliferation was monitored by flow cytometry. […]

[5] = tested on: Her-2 specific CAR T cells; test: Her-2-specific CAR T cells incubated with 24JK-Her-2 sarcoma cells, secreted IFNγ by ELISA (FIG. 20); assay type: cell-based, mouse; conditions: with 24JK-Her-2, 24JK or medium alone, versus vehicle control
Description: FIG. 20. […] Her-2-specific CAR T cells were incubated with Her-2 expressing 24JK sarcoma cells (24JK-Her-2) or 24JK sarcoma cells (24JK) or medium alone, in the presence of vehicle control or the PTPN2 inhibitor, compound 8 (described herein). T cell activation was assessed by monitoring for secreted IFNγ by ELISA (Mouse IFNγELISA Set, BD OptEIA™) according to the supplier's specifications. Tests were performed in triplicates (±SD).
Her-2-specific CAR T cells were incubated with Her-2 expressing 24JK sarcoma cells (24JK-Her-2) or 24JK sarcoma cells (24JK) or medium alone, in the presence of vehicle control or the PTPN2 inhibitor, compound 8 (described herein). T cell activation was assessed by monitoring for secreted IFNγ by ELISA (Mouse IFNγELISA Set, BD OptEIA™) according to the supplier's specifications. Tests were performed in triplicates (±SD).

murine CD8+ T cells = test: PTPN2 siRNA knock down in splenocytes, CD8+ T cell numbers after α-CD3/α-CD28 stimulation (FIG. 17); assay type: cell-based, C57BL/6 mice; conditions: 30 nM, 100 nM and 300 nM siRNA, α-CD3/α-CD28 (5 μg/ml each) for 48 h, versus GFP siRNA
Description: FIG. 17. Knock down of PTPN2 using siRNAs in murine CD8+ T cells leads to enhanced TCR-mediated T cell responses. Splenocytes (1×10^7) from C57BL/6 mice were transfected overnight with 100 nM GFP siRNA or 30 nM, 100 nM and 300 nM PTPN2 siRNA or 30 nM BLOCK-iT™ Fluorescent Oligo using the Amaxa Mouse T cell Nucleofactor Kit. (A) Transfection efficiency of CD8^+ T cells was monitored with BLOCK-iT™ Fluorescent Oligo (Fluor.Oligo) by flow cytometry. (B) Transfected splenocytes were stimulated with plate-bound α-CD3 (5 μg/ml) and α-CD28 (5 μg/ml) for 48 h and stained with fluorochrome-conjugated α-CD8. CD8^+ T cell numbers were quantified with Calibrite Beads™ by flow cytometry. Results shown are means±SD for the indicated number of replicates.
Ptpn2 was knocked down transiently in primary murine T cells using Ptpn2 ([…], SEQ ID NO: 14); Dharmacon Thermo Scientific, Waltham, Mass.); green fluorescent protein (GFP; CAAGCUGACCCUGAAGUUCdTdT; Dharmacon Thermo Scientific, Waltham, Mass.) siRNA was used as a control. […] T cell numbers were monitored by flow cytometry. For quantification Calibrite Beads (BD Biosciences) were added to the wells before cells were harvested.
Splenocytes (1×10^7) from C57BL/6 mice were transfected overnight with 100 nM GFP siRNA or 30 nM, 100 nM and 300 nM PTPN2 siRNA using the Amaxa Mouse T cell Nucleofactor Kit. […] CD8+ T cell numbers were quantified by flow cytometry. […]

## CCc1ccc(C(=O)NCCCCC(NC(=O)C(Cc2ccc(C(F)(F)P(=O)(O)O)cc2)NC(=O)C(Cc2ccccc2)NC(=O)COC2CC(C)CCC2C(C)C)C(N)=O)cc1 (stereo not drawn) [compound 8]
[1]
  polyclonal CD8+ T cell activation (CD44, CD62L, CD25, CD69 surface levels, MFI): enhances polyclonal CD8^+ T cell activation ex vivo
[2]
  activated phenotype of naive CD8+ T cells (CD44, CD69, CD25, CD62L MFI): stimulates naive CD8+ T cells to an activated phenotype
[3]
  TCR-mediated T cell activation (CD69, CD154): enhanced TCR-mediated T cell activation
[4]
  TCR-mediated T cell proliferation: enhanced TCR-mediated T cell proliferation
[5]
  tumour-specific activation of Her-2 specific CAR T cells (secreted IFNγ): enhances the tumour-specific activation of Her-2 specific CAR T cells ex vivo

## AAGCCCAUAUGAUCACAGUCG (listed as RNA, chemistry not given here) [PTPN2 siRNA, siRNA used to knock down Ptpn2 transiently in primary murine T cells (Dharmacon)]
Murine CD8+ T cells
  TCR-mediated T cell responses (CD8+ T cell number): dose response increase in cell number
